“Also recorded” adds a separate entry of the source. Marks after values point to notes of the source that are not given here.
Experiments:
[1] = test system: high cardiovascular risk patients; assay: Phase 3 clinical trial study: LDL-C and hsCRP lowering; assay type: in vivo, human; details: ETC-1002 monotherapy
[2] = test system: high cardiovascular risk patients; assay: Phase 3 clinical trial study: safety and tolerability; details: human, in vivo
Text: In a phase 3 clinical trial study consisting of 382 high cardiovascular risk patients who are receiving maximally tolerated statin therapy, treatment of ETC-1002 in combination with Ezetimibe provided clinically and statistically significant lowering of both LDL-C and hsCRP levels by about 35% and about 34% respectively. For patients who are on maximally tolerated statins and received the combination therapy of ETC-1002 and Ezetimibe, no increases in muscle-related adverse effects and no elevations in liver function tests were observed as compared to patients receiving the placebo treatment.

[3] = test system: hypercholesterolemic patients; assay: Phase 2b randomized double-blind trial: percent change from baseline to week 12 in lipids and CRP; assay type: in vivo, human; details: for LDL-C reduction: baseline to week 12; for Apolipoprotein A-I, percent change from baseline to week 12 / Apolipoprotein B, percent change from baseline to week 12 / HDL particle number, percent change from baseline to week 12 / HDL-C, percent change from baseline to week 12 / LDL particle number, percent change from baseline to week 12 / LDL-C, percent change from baseline to week 12 / Non-HDL-C, percent change from baseline to week 12 / Total cholesterol, percent change from baseline to week 12: LS mean ± SE; for CRP, percent change from baseline to week 12 / Triglycerides, percent change from baseline to week 12 / VLDL particle number, percent change from baseline to week 12: median (interquartile range)
Description: Brief Description of Clinical Study and Results.
Study Objectives. The primary objective was to assess the LDL-C-lowering effect of ETC-1002 monotherapy (120 mg or 180 mg daily) versus EZE monotherapy in hypercholesterolemic patients with or without statin intolerance. Secondary objectives were to characterize the dose response of ETC-1002, evaluate the impact of treatment on other lipid and cardiometabolic biomarkers, compare the LDL-C-lowering effect of ETC-1002 plus EZE combination therapy with EZE monotherapy, and characterize the safety and tolerability of the treatment regimens, including muscle-related adverse events (AEs).
Overall Study Design and Plan. […] 16, 2013 to Aug.
LDL-C was calculated using the Friedewald equation.
Efficacy Endpoints. The primary endpoint was the percent change from baseline to week 12 in calculated LDL-C in patients treated with ETC-1002 monotherapy versus those treated with EZE alone. Secondary endpoints included the dose-response relationship between ETC-1002 and the percent change in LDL-C from baseline to week 12, the percent change in LDL-C from baseline to week 12 in patients treated with ETC-1002 plus EZE versus those treated with EZE alone, and the percent change from baseline to week 12 for all treatment groups in LDL particle number, apolipoprotein B, total cholesterol, non-high-density lipoprotein cholesterol (non-HDL-C), HDL-C, HDL particle number, apolipoprotein A-I, triglycerides, very-low-density lipoprotein (VLDL) particle number, and high-sensitivity C-reactive protein (CRP). Lipoprotein particle number was measured using nuclear magnetic resonance […].
Statistical Plan and Analyses. The study was designed to include 322 patients: 92 patients in each monotherapy group and 23 patients in each combination therapy group. Sample size calculations were performed using nQuery Advisor® version 7.0 (Statistical Solutions, Cork, Ireland). The sample size of 92 patients per monotherapy group was expected to provide 90% power to detect a difference of 10% in the absolute percent change from baseline to week 12 in LDL-C between either ETC-1002 treatment group and the EZE monotherapy group. This calculation was based on a 2-sided t test at the 5% level of significance and assumed a common standard deviation of 15% in the statin-tolerant patients and 22% in the statin-intolerant patients with a dropout rate of 15%.
An analysis of covariance was used to compare each ETC-1002 treatment group with EZE monotherapy for each of the efficacy endpoints. The primary model included the effects of treatment and statin intolerance and the baseline value as a covariate. Baseline was defined as the mean of values from weeks −1 and 0 for LDL-C, non-HDL-C, total cholesterol, HDL-C, and triglycerides. For all other lipid and biomarker measures, baseline was defined as the last value before the first dose of study drug. Missing values at week 12 were imputed using the last-observation-carried-forward procedure. When LDL-C could not be calculated (i.e., triglycerides >400 mg/dL), beta-quantification measurements were used to determine LDL-C values. Least-squares (LS) means and standard errors were obtained for each treatment group; differences in LS means and p-values were obtained for the treatment comparisons. Graphical methods (e.g., normal probability plot and histogram of residuals, plot of residuals vs. predicted values) or analytical methods (e.g., Shapiro-Wilk test), or both, were used to assess the model assumptions. Because of departures from normality observed in the parameters of triglycerides, CRP, and VLDL particle number, nonparametric analyses were performed for these measures, with p-values obtained from the Wilcoxon rank-sum test and median values presented.
Percent changes from baseline in LDL-C also were summarized by statin-tolerance subgroup. […]

[4] = test system: hypercholesterolemic patients; assay: Phase 2b trial: treatment-emergent adverse events and laboratory safety
Description: Study Population. Medically stable, hypercholesterolemic men and women aged 18 through 80 years with a body mass index between 18 to 45 kg/m^2 were included in the study. […] The study population included both statin-tolerant and statin-intolerant participants. Statin intolerance was defined as the inability to tolerate ≥2 statins because of muscle-related symptoms such as pain, weakness, or cramping that began or increased during statin therapy and resolved on statin discontinuation. At least 1 statin must have been administered at the lowest approved daily dose, defined as rosuvastatin 5 mg, atorvastatin 10 mg, simvastatin 10 mg, lovastatin 20 mg, pravastatin 40 mg, fluvastatin 40 mg, or pitavastatin 2 mg. Treatment with less than the lowest approved daily dose of a statin (i.e., skipping days) was considered equivalent to not tolerating 1 statin at the lowest approved daily dose.
Overall Study Design and Plan. […] Patients underwent a 5-week washout of all lipid-regulating drugs and dietary supplements and abstained from these drugs and supplements throughout the study. Patients also underwent a 5-week patient-only-blinded placebo run-in during the screening period (week −5 to week 0). This single-blind placebo run-in period was used to eliminate patients with muscle-related AEs during placebo treatment. Patients reporting new or worsening, unexplained muscle-related AEs during this run-in period were excluded from the study.
Patients were stratified (1:1) by history of statin intolerance and randomized at week 0 in a 4:4:4:1:1 ratio to once-daily treatment with capsules containing ETC-1002 120 mg, ETC-1002 180 mg, EZE, ETC-1002 120 mg plus EZE, or ETC-1002 180 mg plus EZE. […] A contract laboratory (Medpace Inc., Cincinnati, Ohio), performed all clinical laboratory tests. LDL-C was calculated using the Friedewald equation. Phlebotomy was performed after a minimum 12-hour fast (water was allowed) and only if the patient took their dose of study drug the previous day.
Safety Endpoints. The safety of ETC-1002 was assessed using treatment-emergent AEs; hematology, serum chemistry, and urinalysis laboratory values; physical examination findings; vital sign measurements; electrocardiogram (ECG) readings; weight; and ankle and waist circumference measurements. AEs were coded using the Medical Dictionary for Regulatory Activities version 16.0 and evaluated by the investigator for severity and relation to study drug. Muscle-related AEs were defined as those from the system organ class of musculoskeletal and connective tissue disorders, except for those that were not obviously muscle related. Terms included in the muscle-related AE analysis were selected from this system organ class after database lock and before unblinding.
Safety analyses were performed on the safety population, which included randomized patients who received at least 1 dose of study drug. Baseline patient characteristics were summarized for the safety population by treatment group and statin-tolerance subgroup.
Muscle-related AEs also were summarized by statin-tolerance subgroup.

[5] = ETC-1002 120 mg daily, mITT n = 97
[6] = ETC-1002 180 mg daily, mITT n = 99
[7] = ETC-1002 120 mg daily, safety population n = 99
[8] = ETC-1002 180 mg daily, safety population n = 100
[9] = statin-intolerant patients, ETC-1002 120 mg, n = 51
[10] = statin-intolerant patients, ETC-1002 180 mg, n = 51
[11] = statin-tolerant patients, ETC-1002 120 mg, n = 48
[12] = statin-tolerant patients, ETC-1002 180 mg, n = 49

## CC(C)(CCCCCC(O)CCCCCC(C)(C)C(=O)O)C(=O)O [ETC-1002, 8-hydroxy-2,2,14,14 tetramethylpentadecanedioic acid]
[1]; patients not receiving background statin therapy
  LDL-C lowering: ≥ 30%
[1]; patients receiving background statin therapy
  LDL-C lowering: ≥ 20%
[1]; patients receiving maximally tolerated statin therapy
  hsCRP lowering: 22-40%
[2]
  Increases in muscle-related adverse effects or serious adverse effects: without any increases
  Tolerability: well tolerated and safe
[3]; ETC-1002 120 mg
  CRP decrease from baseline to week 12 endpoint, median: 30%
[3]; ETC-1002 120 mg alone
  LDL-C reduction: 27%
[3]; [5]
  Apolipoprotein A-I, percent change from baseline to week 12: −0.2 ± 1.1%
  Apolipoprotein B, percent change from baseline to week 12: −19.3 ± 1.3 %
  HDL particle number, percent change from baseline to week 12: 5.0 ± 1.3%
  HDL-C, percent change from baseline to week 12: −5.8 ± 1.4 %
  LDL particle number, percent change from baseline to week 12: −21.8 ± 1.7 %
  LDL-C, percent change from baseline to week 12: −27.5 ± 1.3 %
  Non-HDL-C, percent change from baseline to week 12: −23.2 ± 1.2 %
  Total cholesterol, percent change from baseline to week 12: −19.3 ± 0.9 %
  CRP, percent change from baseline to week 12: −30.1 (55.4)† %
  Triglycerides, percent change from baseline to week 12: 0.0 (41.6) %
  VLDL particle number, percent change from baseline to week 12: −2.7 (68.5) %
[3]; ETC-1002 180 mg
  CRP decrease from baseline to week 12 endpoint, median: 40%
[3]; ETC-1002 180 mg alone
  LDL-C reduction: 30%
[3]; [6]
  Apolipoprotein A-I, percent change from baseline to week 12: 0.1 ± 1.2%
  Apolipoprotein B, percent change from baseline to week 12: −21.3 ± 1.3 %
  HDL particle number, percent change from baseline to week 12: 6.2 ± 1.4%
  HDL-C, percent change from baseline to week 12: −4.8 ± 1.4 %
  LDL particle number, percent change from baseline to week 12: −24.6 ± 1.8 %
  LDL-C, percent change from baseline to week 12: −30.1 ± 1.3 %
  Non-HDL-C, percent change from baseline to week 12: −25.3 ± 1.1 %
  Total cholesterol, percent change from baseline to week 12: −20.7 ± 0.9 %
  CRP, percent change from baseline to week 12: −40.2 (53.3)† %
  Triglycerides, percent change from baseline to week 12: −2.7 (46.2) %
  VLDL particle number, percent change from baseline to week 12: 15.3 (80.5) %
[3]; ETC-1002 monotherapy 120 mg or 180 mg
  LDL-C reduction, ETC-1002 alone (maximum): up to 30%
[4]; ETC-1002 120 mg
  ALT or AST, or both, increased >3 times the upper limit of normal at any measurement: 1 patient
  Myalgia, patients, entire study population: 3%
  Serious AE reported (event): hemothorax; also recorded: sudden death
[4]; [7]
  ALT increased, patients: 0 n (%)
  AST increased, patients: 0 n (%)
  Any AE(s), patients: 50 (51%) n (%)
  Arthralgia, patients: 4 (4%) n (%)
  Back pain, patients: 1 (1%) n (%)
  Blood CK increased, patients: 1 (1%) n (%)
  Constipation, patients: 3 (3%) n (%)
  Discontinuation due to AE(s), patients: 3 (3%) n (%)
  Headache, patients: 3 (3%) n (%)
  Myalgia, patients: 3 (3%) n (%)
  Nasopharyngitis, patients: 3 (3%) n (%)
  Serious AE(s), patients: 2 (2%) n (%)
  Study drug-related AE(s), patients: 13(13%) n (%)
  Upper respiratory tract infection, patients: 6 (6%) n (%)
  Urinary tract infection, patients: 0 n (%)
[4]; ETC-1002 180 mg
  ALT or AST, or both, increased >3 times the upper limit of normal at any measurement: 2 patients
  Myalgia, patients, entire study population: 1%
  Serious AE reported (event): pancreatitis relapse
[4]; [8]
  ALT increased, patients: 0 n (%)
  AST increased, patients: 0 n (%)
  Any AE(s), patients: 55 (55%) n (%)
  Arthralgia, patients: 1 (1%) n (%)
  Back pain, patients: 1 (1%) n (%)
  Blood CK increased, patients: 4 (4%) n (%)
  Constipation, patients: 1 (1%) n (%)
  Discontinuation due to AE(s), patients: 6 (6%) n (%)
  Headache, patients: 2 (2%) n (%)
  Myalgia, patients: 1 (1%) n (%)
  Nasopharyngitis, patients: 5 (5%) n (%)
  Serious AE(s), patients: 1 (1%) n (%)
  Study drug-related AE(s), patients: 18 (18%) n (%)
  Upper respiratory tract infection, patients: 6 (6%) n (%)
  Urinary tract infection, patients: 4 (4%) n (%)
[4]; [9]
  Any muscle-related AE, patients: 7 (14%) n (%)
  Muscle spasms, patients: 3 (6%) n (%)
  Muscle-related AE leading to discontinuation, patients: 1 (2%) n (%)
  Muscular weakness, patients: 2 (4%) n (%)
  Musculoskeletal chest pain, patients: 0 n (%)
  Musculoskeletal stiffness, patients: 0 n (%)
  Myalgia, patients: 2 (4%) n (%)
  Pain in extremity, patients: 1 (2%) n (%)
  Sensation of heaviness, patients: 0 n (%)
[4]; [10]
  Any muscle-related AE, patients: 6 (12%) n (%)
  Muscle spasms, patients: 2 (4%) n (%)
  Muscle-related AE leading to discontinuation, patients: 2 (4%) n (%)
  Muscular weakness, patients: 1 (2%) n (%)
  Musculoskeletal chest pain, patients: 1 (2%) n (%)
  Musculoskeletal stiffness, patients: 0 n (%)
  Myalgia, patients: 1 (2%) n (%)
  Pain in extremity, patients: 1 (2%) n (%)
  Sensation of heaviness, patients: 0 n (%)
[4]; [11]
  Any muscle-related AE, patients: 1 (2%) n (%)
  Muscle spasms, patients: 0 n (%)
  Muscle-related AE leading to discontinuation, patients: 0 n (%)
  Musculoskeletal pain, patients: 0 n (%)
  Myalgia, patients: 1 (2%) n (%)
[4]; [12]
  Any muscle-related AE, patients: 0 n (%)
  Muscle spasms, patients: 0 n (%)
  Muscle-related AE leading to discontinuation, patients: 0 n (%)
  Musculoskeletal pain, patients: 0 n (%)
  Myalgia, patients: 0 n (%)

— US20210322375A1, “COMBINATION DRUG FORMULATIONS FOR TREATING PATIENTS WITH CARDIOVASCULAR DISEASE AND ASSOCIATED CONDITIONS” (Esperion Therapeutics, Inc., priority 2018, published 2021)
